The text below walks through data of patent publication US9499553B2 (CHUGAI SEIYAKU KABUSHIKI KAISHA, priority 2013, dated 2016).

Assay [1] deals with rat small-intestinal brush border membrane vesicles. Nature of the assay: Inhibitory effect on 33PO4 uptake into rat small-intestinal brush border membrane vesicles (rapid filtration method). The format is biochemical. The conditions noted are these: 1 μM test compound; 33PO4 uptake into rat small-intestinal BBMVs, reacted for 60 seconds. How it is done: Test Example 1: Inhibitory Effect on ^33PO4 Uptake into Rat Small-Intestinal Brush Border Membrane Vesicles Brush border membrane vesicles (BBMVs) were prepared using the upper region of the small intestine of each Wistar female rat (4-5 weeks old). The preparation of BBMVs was performed according to the method of Murer et al. (Murer […]. Sodium/proton antiport in brush-border-membrane vesicles isolated from rat small intestine and kidney. 1976. J Am Soc Nephrol. 1998 January; 9 (1): 143-50). The ^33PO4 transport activity of the small-intestinal BBMVs was determined by the rapid filtration method. […] Then, ice-cold buffer C (110 mM NaCl, 1 mM KH2PO4, and 10 mM HEPES (pH 7.5)) was added to each reaction mixture, which was immediately suction-filtered through a Millipore filter. The filter was washed with buffer C, and each sample was then dissolved in a liquid scintillator. The amount of ^33PO4 uptake into BBMVs was measured using a liquid scintillation counter.

The next assay deals with T1, human NaPi-IIb (Homo sapiens, UniProt O95436).
T1 construct: expressed in transfected cells
T1 sequence (O95436 1-690): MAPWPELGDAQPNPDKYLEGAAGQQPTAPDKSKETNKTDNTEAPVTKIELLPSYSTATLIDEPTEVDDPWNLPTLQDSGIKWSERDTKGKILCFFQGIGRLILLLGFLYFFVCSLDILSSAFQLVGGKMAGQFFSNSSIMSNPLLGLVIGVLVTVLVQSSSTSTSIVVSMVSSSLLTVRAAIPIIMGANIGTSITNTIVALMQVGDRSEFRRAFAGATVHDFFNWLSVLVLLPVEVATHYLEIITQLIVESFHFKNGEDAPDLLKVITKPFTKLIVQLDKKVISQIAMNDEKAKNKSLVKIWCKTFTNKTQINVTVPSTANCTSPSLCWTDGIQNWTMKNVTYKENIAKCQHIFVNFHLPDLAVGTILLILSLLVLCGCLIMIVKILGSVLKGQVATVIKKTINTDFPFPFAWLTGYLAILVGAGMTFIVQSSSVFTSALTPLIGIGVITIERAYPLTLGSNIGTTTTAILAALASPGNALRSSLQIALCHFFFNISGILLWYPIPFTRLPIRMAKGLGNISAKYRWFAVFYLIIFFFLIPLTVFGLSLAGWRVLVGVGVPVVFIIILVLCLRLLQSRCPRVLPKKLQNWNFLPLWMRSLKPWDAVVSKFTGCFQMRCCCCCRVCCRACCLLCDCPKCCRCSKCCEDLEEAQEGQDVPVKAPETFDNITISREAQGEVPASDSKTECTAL
Nature of the assay: Inhibitory effect on 33PO4 uptake into human NaPi-IIb-expressing CHO cells. The format is cell-based. The method in brief:
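Uptake of ³³PO4 was measured by scintillation counting after ice-cold buffer A washes. Cells were CHO stably expressing human NaPi-IIb, seeded overnight, and exposed to ³³PO4 in buffer A at room temperature.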

The mark [2] stands for this setting: read-out: IC50 against 33PO4 uptake into human NaPi-IIb-expressing cells.

Structures can show the parent of a compound that is named as a salt. Where two headings read alike, the source gives them in different places.

Take `C[C@]12CCCN1N(Cc1cccc(F)c1F)C(=O)C(C(=O)Nc1ccc(C(F)(F)F)cc1-c1cnc(C#N)cn1)=C2O` [Example 57]: in assay [1], the “Rate of uptake inhibition (%) (1 μM)” value came to 71%. Besides, at human NaPi-IIb (read-out: IC50), the IC50 (as a rule, the concentration that gives 50% inhibition) was found to be 10.3 µM. For `CC1(C)CC[C@]2(C)C(O)=C(C(=O)Nc3ccc(C(F)(F)F)cc3-c3ccc(C(F)(F)F)nc3)C(=O)N(Cc3cccc(F)c3F)N12` [Example 61] the same measures were 71% and 5.6 µM. Turning to `CN1N(Cc2ccc(OCC[N+]34CCN(CC3)CC4)c(F)c2F)C(=O)C(C(=O)Nc2ccc(C(F)(F)F)cc2-c2cc(C(F)(F)F)ncn2)=C(O)C12CCCC2` [Example 415, 1-(2-(2,3-Difluoro-4-((10-hydroxy-6-methyl-8-oxo-9-((4-(trifluoromethyl)-2-(6-(trifluoromethyl)pyrimidin-4-yl)phenyl)carbamoyl)-6,7-diazaspiro[4.5]dec-9-en-7-yl)methyl)phenoxy)ethyl)-1,4-diazabicyclo[2.2.2]octan-1-ium formate], the “Rate of uptake inhibition (%) (1 μM)” value in assay [1] turned out to be 21%. Besides, at human NaPi-IIb (setting [2]), the IC50 was 18.5 µM. For the compound `C[C@]12CCCN1N(Cc1cccc(F)c1F)C(=O)C(C(=O)Nc1ccc(C(F)(F)F)cc1-c1ccc(C#N)nc1)=C2O` [Example 94], in assay [1], the “Rate of uptake inhibition (%) (1 μM)” value is given as 73%. The IC50 on human NaPi-IIb (read-out: IC50) turned out to be 8.8 µM. For `C[C@]12CCCN1N(Cc1cccc(F)c1F)C(=O)C(C(=O)Nc1ccc(C(F)(F)F)cc1-c1cc(C#N)ccn1)=C2O` [Example 45] the same measures were 73% and 13 µM. In the case of `C[C@]12CCCN1N(Cc1cccc(F)c1F)C(=O)C(C(=O)Nc1cc(Br)c(Br)cc1F)=C2O` [Example 33], the “Rate of uptake inhibition (%) (1 μM)” value in assay [1] is recorded as 77%. Besides, at human NaPi-IIb (read-out: IC50), the IC50 was found to be 6 µM.

Consider `C[C@]12CCCN1N(Cc1cccc(F)c1F)C(=O)C(C(=O)Nc1ccc(C(F)(F)F)cc1-c1cnc(C#N)nc1)=C2O` [Example 95], for which the “Rate of uptake inhibition (%) (1 μM)” value in assay [1] turned out to be 80%. At human NaPi-IIb (read-out: IC50), the IC50 came to 5.4 µM. For `C[C@]12CCCN1N(Cc1cccc(F)c1Br)C(=O)C(C(=O)Nc1ccc(Br)c(F)c1)=C2O` [Example 37] the same measures were 89% and 3.7 µM. For `C[C@]12CCCN1N(Cc1cccc(F)c1Br)C(=O)C(C(=O)Nc1ccc(Br)c(C(F)(F)F)c1)=C2O` [Example 42] the same measures were 67% and 5 µM. For `C[C@]12CCCN1N(Cc1cccc(F)c1F)C(=O)C(C(=O)Nc1ccc(Br)c(F)c1F)=C2O` [Example 32] the same measures were 73% and 2.8 µM.

As to `Cc1nc(NC(=O)C2=C(O)[C@@]3(C)CCCN3N(Cc3cccc(F)c3Br)C2=O)ccc1Br` [Example 39], the “Rate of uptake inhibition (%) (1 μM)” value in assay [1] is recorded as 90%. Besides, the 50% inhibitory concentration (IC50) on human NaPi-IIb (read-out: IC50) came to 8.5 µM. Turning to `C[C@]12CCCN1N(Cc1cccc(F)c1Br)C(=O)C(C(=O)Nc1ccc(Br)c(C#N)c1)=C2O` [Example 40], in assay [1], the “Rate of uptake inhibition (%) (1 μM)” value was 87%. Besides, the IC50 at human NaPi-IIb (read-out: IC50) is 6.5 µM. Regarding `C[C@]12CCCN1N(Cc1ccc(OCCN3CCOCC3)c(F)c1F)C(=O)C(C(=O)Nc1ccc(C(F)(F)F)cc1-c1ncnc(C#N)c1Cl)=C2O` [Example 53], the “Rate of uptake inhibition (%) (1 μM)” value in assay [1] is reported as 72%. Besides, the IC50 at human NaPi-IIb (read-out: IC50) was 9.5 µM.

With `CSc1ncc(-c2cc(C(F)(F)F)ccc2NC(=O)C2=C(O)[C@@]3(C)CCC(C)(C)N3N(Cc3cccc(F)c3F)C2=O)cn1` [Example 62], in assay [1], the “Rate of uptake inhibition (%) (1 μM)” value stood at 73%. The IC50 at human NaPi-IIb (read-out: IC50) was 6.4 µM. `COc1nc(C#N)ncc1-c1cc(C(F)(F)F)ccc1NC(=O)C1=C(O)[C@@]2(C)CCCN2N(Cc2ccc(OCCN3CCOCC3)c(F)c2F)C1=O` [Example 55]: in assay [1], the “Rate of uptake inhibition (%) (1 μM)” value is listed as 85%. Moreover, the IC50 on human NaPi-IIb (read-out: IC50) was found to be 15.3 µM. For `Cc1c(-c2cc(C(F)(F)F)ccc2NC(=O)C2=C(O)[C@@]3(C)CCCN3N(Cc3cccc(F)c3F)C2=O)ccnc1Cl` [Example 47] the same measures were 91% and 7.1 µM.

As to `C[C@]12CCCN1N(Cc1cccc(F)c1)C(=O)C(C(=O)Nc1ccc(C(F)(F)F)cc1-c1cc(C(F)(F)F)ncn1)=C2O` [Example 34], the “Rate of uptake inhibition (%) (1 μM)” value in assay [1] is recorded as 99%. For the same compound, at human NaPi-IIb (read-out: IC50), the IC50 is 7 µM. In the case of `COc1cccc(-c2cc(C(F)(F)F)ccc2NC(=O)C2=C(O)[C@@]3(C)CCCN3N(Cc3cccc(F)c3F)C2=O)c1OC` [Example 44], the “Rate of uptake inhibition (%) (1 μM)” value in assay [1] is 94%. The same measure, in the same setting: the result for `C[C@]12CCCN1N(Cc1cccc(F)c1F)C(=O)C(C(=O)Nc1ccc(Br)c(Cl)c1)=C2O` [Example 31] reads 76%. As to `C[C@]12CCCN1N(Cc1ccc(OCCN3CCOCC3)c(F)c1F)C(=O)C(C(=O)Nc1ccc(C(F)(F)F)nc1-c1ccccc1OC(F)(F)F)=C2O` [Example 59], in assay [1], the “Rate of uptake inhibition (%) (1 μM)” value was determined as 84%. In addition, on human NaPi-IIb (read-out: IC50), the IC50 turned out to be 7.4 µM.

Regarding `COc1ccc(CN2C(=O)C(C(=O)Nc3cc(F)c(Br)c(F)c3)=C(O)[C@@]3(C)CCCN23)c(OC)c1` [Example 58], the “Rate of uptake inhibition (%) (1 μM)” value in assay [1] amounted to 46%.

On to `CN(CCOCCOCCOCCOCCOc1ccc(CN2C(=O)C(C(=O)Nc3ccc(C(F)(F)F)cc3-c3cc(C(F)(F)F)ncn3)=C(O)C3(CCCC3)N2C)c(F)c1F)C[C@@H](O)[C@H](O)[C@@H](O)[C@@H](O)CO` [Example 421, 7-[[2,3-Difluoro-4-[2-[2-[2-[2-[2-[methyl-[(2R,3 S,4S,5 S)-2,3,4,5,6-pentahydroxyhexyl]amino]ethoxy]ethoxy]ethoxy]ethoxy]ethoxy]phenyl]methyl]-10-hydroxy-6-methyl-8-oxo-N-[4-(trifluoromethyl)-2-[6-(trifluoromethyl)pyrimidin-4-yl]phenyl]-6,7-diazaspiro[4.5]dec-9-ene-9-carboxamide], for which the IC50 on human NaPi-IIb (setting [2]) came to 19.5 µM. As to `CN1[C@@H](C(C)(C)C)C(O)=C(C(=O)Nc2ccc(Br)c(C(F)(F)F)n2)C(=O)N1Cc1cccc(F)c1F` [Example 242], the IC50 on human NaPi-IIb (read-out: IC50) is 7.8 µM. Same read-out and setting: the result for `COCCOc1cc(NC(=O)C2=C(O)[C@@]3(C)CCCN3N(Cc3cccc(F)c3F)C2=O)c(-c2cccc(OC)c2OC)cc1C(F)(F)F` [Example 92] reads 20.2 µM; that for `Cc1c(Cl)ncnc1-c1cc(Cl)ccc1NC(=O)C1=C(O)[C@H](C(C)(C)C)N(C)N(Cc2ccc(OCCN3CCOCC3)c(F)c2F)C1=O` [Example 275], 16.8 µM.

In the case of `CN(C)S(=O)(=O)c1ccc(-c2nc(C(F)(F)F)ccc2NC(=O)C2=C(O)[C@@]3(C)CCCN3N(Cc3cccc(F)c3F)C2=O)cc1` [Example 87], the IC50 on human NaPi-IIb (read-out: IC50) is 8.3 µM.

As to `CN1N(Cc2ccc(OCCN3C4CCC3COC4)c(F)c2F)C(=O)C(C(=O)Nc2ccc(C(F)(F)F)cc2-c2cc(C(F)(F)F)ncn2)=C(O)C12CCCC2` [Example 367], at human NaPi-IIb (setting [2]), the half-inhibitory concentration (IC50) was 14 µM.

Regarding `CN(CCO)CCOc1ccc(CN2C(=O)C(C(=O)Nc3ccc(C(F)(F)F)cc3-c3cc(C(F)(F)F)ncn3)=C(O)C3(CCCC3)N2C)c(F)c1F` [Example 373], the IC50 on human NaPi-IIb (setting [2]) worked out at 23.5 µM. Regarding `CN1N(Cc2cccc(F)c2F)C(=O)C(C(=O)Nc2ccc(Br)c(C(F)(F)F)n2)=C(O)C12CCCC2` [Example 263], the IC50 at human NaPi-IIb (read-out: IC50) turned out to be 3 µM. For `CN1N(Cc2ccc(OCCCOC[C@H](O)CO)c(F)c2F)C(=O)C(C(=O)Nc2ccc(C(F)(F)F)cc2-c2cc(C(F)(F)F)ncn2)=C(O)C12CCCC2` [Example 392], the IC50 at human NaPi-IIb (setting [2]) is 15.8 µM. Turning to `C[C@]12CCCN1N(Cc1ccccc1Cl)C(=O)C(C(=O)Nc1ccc(C(F)(F)F)cc1-c1cc(C(F)(F)F)ncn1)=C2O` [Example 180], at human NaPi-IIb (read-out: IC50), the IC50 stood at 5.7 µM.
